Experimental data as given in patent US7357930B1, “Methods and formulations for targeting infectious agents bearing host cell proteins” (Infectio Recherche Inc., priority 1999, dated 2008).
Read-outs that look alike come from different tables or passages of the source.

Key:
[1] = system: HIV-1-based luciferase reporter viruses with HXB2, AML-V or VSV-G env; type: cell-based
[2] = system: Mono Mac 1 cell line; experiment: Toxicity in Mono Mac 1 cells; type: cell-based; conditions: data not shown
[3] = system: 1G5 cells; experiment: Cellular viability / toxicity in 1G5 cells; type: cell-based; conditions: 72 h, concentration range tested (0-10 μg/ml), data not shown
[4] = system: HIV-1NL4-3; experiment: AmB inhibition of HIV-1NL4-3 replication in 1G5 cells (luciferase activity)
Description: In a second set of experiments, AmB and the virus were added simultaneously to cells and incubation was made during the first two hours of infection (open square).
Infection was monitored by measuring the luciferase activity. […] Thereafter, an aliquot of this cell lysate (20 μl) was mixed with 100 μl of luciferase assay buffer and activity was evaluated using a microplate luminometer.

SMILES | inhibition of infection with pseudotyped virions [1] | toxicity [2] | cellular viability [3] | concentration giving complete inhibition of HIV-1NL4-3 replication ([4]; 1G5 cells pretreated with AmB) | inhibition of viral replication ([4]; AmB added to infected cells after adsorption, 10 μg AmB/ml, 72 h) | concentration giving complete abrogation of viral replication ([4]; cell-free virus pretreated 1 h at 37° C.) | viral particles inactivated ([4]; cell-free virus pretreated 1 h at 37° C. with 1 μg AmB/ml) | concentration giving complete inhibition of HIV-1 replication ([4]; virus and AmB added simultaneously to cells (no pretreatment)) | Area under the curve of indinavir (Brachial lymph nodes) | Area under the curve of indinavir (Cervical lymph nodes) | Area under the curve of indinavir (Inguinal lymph nodes) | Area under the curve of indinavir (Liver) | Area under the curve of indinavir (Mesenteric lymph nodes) | Area under the curve of indinavir (Plasma) | Area under the curve of indinavir (Popliteal lymph nodes) | Area under the curve of indinavir (Spleen) | drug levels in lymphoid tissues (all lymphoid tissues)
C[C@@H]1[C@H](O)[C@@H](C)/C=C/C=C/C=C/C=C/C=C/C=C/C=C/[C@H](O[C@@H]2O[C@H](C)[C@@H](O)[C@H](N)[C@@H]2O)C[C@@H]2O[C@](O)(C[C@@H](O)C[C@@H](O)[C@H](O)CC[C@@H](O)C[C@@H](O)CC(=O)O[C@H]1C)C[C@H](O)[C@H]2C(=O)O [AmB, amphotericin B] | efficient to inhibit infection | without significant toxicity | did not affect the cellular viability | 10 μg AmB/ml | 40% | 5 μg AmB/ml | About 50% | 10 μg AmB/ml |  |  |  |  |  |  |  |  | 
CC(C)(C)NC(=O)[C@@H]1CN(Cc2cccnc2)CCN1C[C@@H](O)C[C@@H](Cc1ccccc1)C(=O)N[C@H]1c2ccccc2C[C@H]1O [Free indinavir, indinavir] |  |  |  |  |  |  |  |  | 4.9 μmoles lipids/g tissues/h | 7.6 μmoles lipids/g tissues/h | 4.1 μmoles lipids/g tissues/h | 35.0 μmoles lipids/g tissues/h | 6.4 μmoles lipids/g tissues/h | 2.3 μmoles lipids/g tissues/h | 4.5 μmoles lipids/g tissues/h | 5.3 μmoles lipids/g tissues/h | very low drug levels
